This is an account of results in patent US4791215A, “Derivatives of glutamic acid and aspartic acid” (priority 1984, dated 1988).

For one assay, the system named is morphine analgesia. Put plainly: Increase in analgesia of morphine, Tail Flick Test (Experiment 1). Format: in vivo, rats. To be noted: for percentage variation of latency of pain sensation / M (10-90) ± SE, mean percentage variation of latency: compound 10 mg/kg i.p. + morphine 2 mg/kg; for M (10-90) ± SE, mean percentage variation of latency: mean 10-90 min; for Power ratio with respect to morphine alone: rat, in vivo. As to the method: Experiment No: 1 Increase in analgesia of analgesic-narcotic drugs in rats by the Tail Flick Test
The method is that described by Harris et al. (J. Pharmacol. Exp. Ther. 143 (1964) 141-148).
Male rats are used having a weight of about 150-200 g which have not fasted. A point on the tail is chosen and irradiated by a heat source (75° C.) and the time (in seconds) for which the animal remains without moving its tail is measured.
A maximum period of time of 8 seconds under the heat source is chosen, after which the animal is, in any case, removed to avoid tissue damage. The measurement is effected before (controls) and after treatment with the drugs.
The percentage variation is calculated for each individual animal by the following formula: [formula] The measurements were carried out 10, 20, 30, 45, 60 and 90 minutes after treatment with the analgesics.

Assay [1] deals with CCK-8 induced contraction of guinea pig gall bladder. In words: Anti-CCK activity on gall bladder strips in vitro. As to conditions: CCK-8 10 ng/ml. How it is done:
ANTI-CCK ACTIVITY ON GUINEA PIG GALL BALDDERS IN VITRO
A longitudinal strip of guinea pig gall bladder was placed in a bath of isolated members in the presence of Krebs at a temperature of 32° C. with continuous oxygenation with an oxygen-CO2 mixture (95-5V/V).
The isometric contractions were detected by means of a force transducer and recorded.
The gall bladder was made to contract with the use of a 10 ng/ml concentration of CCK-8; the antagonistic activity of the compounds of the invention on the contracting effect of the CCK was determined with the use of different concentrations and the ED 50 value, that is the concentration in μg/ml of a compound which could antagonise 50% of the contracting effect of the CCK, was determined.

Turning to `CCCN(CCC)C(=O)C(CCC(=O)O)NC(=O)c1ccc(Cl)c(Cl)c1` (stereo not drawn) [Compound C-5], the “percentage variation of latency of pain sensation” value in the assay on morphine analgesia (10') is 34.5 ± 17.4%; in the assay with morphine analgesia (20') it was 21.4 ± 16.0%; in the assay with morphine analgesia (30'), 59.5 ± 21.1%; in the assay on morphine analgesia (45'), 84.7%; in the assay with morphine analgesia (60'), 63.9 ± 18.5%; with morphine analgesia (90'), 40.1 ± 23.9%. Also, the “M (10-90) ± SE, mean percentage variation of latency” value with morphine analgesia was 50.7 ± 23.0%. In the assay with morphine analgesia, the “Power ratio with respect to morphine alone” value (“Power ratio” for short) turned out to be 1.70. Also, the “ED50 (concentration antagonising 50% of contracting effect of CCK-8)” value in assay [1] was 4.2 µg/mL.

With `CCCCCCN(CCCCCC)C(=O)C(CCC(=O)O)NC(=O)c1ccc(Cl)c(Cl)c1` (stereo not drawn) [Compound C-8], the “percentage variation of latency of pain sensation” value came out at 67.4 ± 20.5% in the assay with morphine analgesia (10'); 74.1 ± 15.8% in the assay with morphine analgesia (20'); 80.0 ± 12.9% with morphine analgesia (30'); 85.9 ± 14.1% with morphine analgesia (45'); 87.1% with morphine analgesia (60'); 60.4 ± 17.3% in the assay with morphine analgesia (90'). Moreover, the “M (10-90) ± SE, mean percentage variation of latency” value with morphine analgesia came to 75.8 ± 10.6%. In addition, in the assay on morphine analgesia, the “Power ratio” value is 2.54. Further, in assay [1], the “ED50 (concentration antagonising 50% of contracting effect of CCK-8)” value was 0.93 µg/mL.

In the case of `CCCCN(CCCC)C(=O)C(CCC(=O)O)NC(=O)c1cc(Cl)cc(Cl)c1` (stereo not drawn) [Compound C-9], the “percentage variation of latency of pain sensation” value in the assay with morphine analgesia (10') was determined as 67.6 ± 11.0%; with morphine analgesia (20'), 65.8%; in the assay on morphine analgesia (30'), 71.9 ± 17.5%; in the assay on morphine analgesia (45'), 59.1 ± 20.0%; in the assay on morphine analgesia (60'), 52.1 ± 22.0%; in the assay with morphine analgesia (90') it was 40.4 ± 18.0%. Moreover, the “M (10-90) ± SE, mean percentage variation of latency” value with morphine analgesia is on record as 59.5 ± 11.6%. In the assay with morphine analgesia, the “Power ratio” value was 2.00. The “ED50 (concentration antagonising 50% of contracting effect of CCK-8)” value in assay [1] was found to be 7.40 µg/mL.

On to `CCCCN(CCCC)C(=O)C(CCC(=O)O)NC(=O)c1ccc(Cl)cc1Cl` (stereo not drawn) [Compound C-10], for which the “percentage variation of latency of pain sensation” value in the assay on morphine analgesia (10') came out at 56.9 ± 25.8%; in the assay on morphine analgesia (20'), 66.4 ± 21.4%; in the assay with morphine analgesia (30'), 72.9%; in the assay on morphine analgesia (45'), 70.1 ± 18.5%; in the assay on morphine analgesia (60'), 66.2 ± 21.3%; in the assay with morphine analgesia (90'), 63.2 ± 23.4%. In the assay on morphine analgesia, the “M (10-90) ± SE, mean percentage variation of latency” value is 66.0 ± 5.6%. In addition, in the assay with morphine analgesia, the “Power ratio” value turned out to be 2.21. The “ED50 (concentration antagonising 50% of contracting effect of CCK-8)” value in assay [1] stood at 43.7 µg/mL.

Take `CCCCN(CCCC)C(=O)C(CCC(=O)O)NC(=O)c1cc(Cl)c(Cl)c(Cl)c1` (stereo not drawn) [Compound C-11]: the “percentage variation of latency of pain sensation” value with morphine analgesia (10') is on record as 25.2 ± 4.0%; in the assay with morphine analgesia (20'), 37.6 ± 16.0%; in the assay on morphine analgesia (30'), 50.9 ± 11.0%; with morphine analgesia (45'), 54.4 ± 9.0%; in the assay with morphine analgesia (60') it was 35.8%; in the assay with morphine analgesia (90') it was 18.7 ± 10.0%. Moreover, in the assay with morphine analgesia, the “M (10-90) ± SE, mean percentage variation of latency” value is given as 37.1 ± 14.0%. For the same molecule, in the assay on morphine analgesia, the “Power ratio” value turned out to be 1.24. For the same molecule, the “ED50 (concentration antagonising 50% of contracting effect of CCK-8)” value in assay [1] was found to be 0.85 µg/mL.

As to `CCCN(CCC)C(=O)C(CCC(=O)O)NC(=O)c1ccc(F)cc1` (stereo not drawn) [Compound C-12], the “percentage variation of latency of pain sensation” value with morphine analgesia (10') is 54.4 ± 16.7%; in the assay with morphine analgesia (20'), 76.3%; in the assay with morphine analgesia (30'), 61.6 ± 16.0%; in the assay with morphine analgesia (45') it was 63.9 ± 20.0%; in the assay on morphine analgesia (60'), 65.2 ± 17.0%; in the assay on morphine analgesia (90'), 11.6 ± 14.0%. Further, the “M (10-90) ± SE, mean percentage variation of latency” value in the assay on morphine analgesia was 55.5%. Besides, the “Power ratio” value in the assay on morphine analgesia worked out at 1.86. In assay [1], the “ED50 (concentration antagonising 50% of contracting effect of CCK-8)” value was found to be 64.7 µg/mL.

As to `CCCN(CCC)C(=O)C(CCC(=O)O)NC(=O)c1cc(F)cc(F)c1` (stereo not drawn) [Compound C-13], the “percentage variation of latency of pain sensation” value in the assay on morphine analgesia (10') was found to be 24.6 ± 8.9%; with morphine analgesia (20') it was 70.0 ± 18.5%; in the assay on morphine analgesia (30'), 75.5 ± 15.0%; in the assay on morphine analgesia (45'), 56.6%; with morphine analgesia (60'), 62.3 ± 17.3%; with morphine analgesia (90'), 59.2 ± 25.1%. Further, in the assay with morphine analgesia, the “M (10-90) ± SE, mean percentage variation of latency” value was found to be 58.0 ± 18.0%. The “Power ratio” value with morphine analgesia was 1.95. Moreover, the “ED50 (concentration antagonising 50% of contracting effect of CCK-8)” value in assay [1] is over 200 µg/mL.

Consider `CCCN(CCC)C(=O)C(CCC(=O)O)NC(=O)c1ccccc1Br` (stereo not drawn) [Compound C-14], for which the “percentage variation of latency of pain sensation” value with morphine analgesia (10') worked out at 36.5 ± 28.4%; in the assay on morphine analgesia (20'), 76.0 ± 12.7%; in the assay with morphine analgesia (30') it was 79.3 ± 10.6%; in the assay on morphine analgesia (45') it was 77.0 ± 6.7%; in the assay with morphine analgesia (60'), 98.3 ± 1.3%; with morphine analgesia (90') it was 71.9 ± 13.2%. Further, in the assay on morphine analgesia, the “M (10-90) ± SE, mean percentage variation of latency” value is listed as 73.1 ± 20.0%. In addition, in the assay with morphine analgesia, the “Power ratio” value is 2.45. In addition, the “ED50 (concentration antagonising 50% of contracting effect of CCK-8)” value in assay [1] came to 118.4 µg/mL.

As to `CCCN(CCC)C(=O)C(CCC(=O)O)NC(=O)c1ccc(Br)cc1` (stereo not drawn) [Compound C-15], the “percentage variation of latency of pain sensation” value is listed as 59.8 ± 14.0% in the assay with morphine analgesia (10'); 84.2 ± 9.6% in the assay on morphine analgesia (20'); 78.3 ± 13.5% in the assay with morphine analgesia (30'); 88.7 ± 8.5% in the assay with morphine analgesia (45'); 82.5 ± 12.7% with morphine analgesia (60'); 54.5 ± 14.7% with morphine analgesia (90'). In the assay on morphine analgesia, the “M (10-90) ± SE, mean percentage variation of latency” value is reported as 74.7%. The “Power ratio” value in the assay with morphine analgesia turned out to be 2.51. Further, the “ED50 (concentration antagonising 50% of contracting effect of CCK-8)” value in assay [1] was over 200 µg/mL.

`CCCN(CCC)C(=O)C(CC(=O)O)NC(=O)c1ccccc1Br` (stereo not drawn) [Compound C-16]: the “percentage variation of latency of pain sensation” value in the assay on morphine analgesia (10') is given as 43.2 ± 11.0%; in the assay on morphine analgesia (20') it was 88.7 ± 10.0%; with morphine analgesia (30'), 54.8 ± 5.8%; with morphine analgesia (45') it was 47.3%; in the assay on morphine analgesia (60'), 26.1 ± 11.5%; in the assay with morphine analgesia (90'), 22.2 ± 16.7%. For the same molecule, the “M (10-90) ± SE, mean percentage variation of latency” value in the assay with morphine analgesia turned out to be 47.0 ± 24.0%. The “Power ratio” value in the assay with morphine analgesia is on record as 1.58. In assay [1], the “ED50 (concentration antagonising 50% of contracting effect of CCK-8)” value is over 200 µg/mL.

As to `CCCN(CCC)C(=O)C(CCC(=O)O)NC(=O)c1ccccc1I` (stereo not drawn) [Compound C-17], the “percentage variation of latency of pain sensation” value in the assay on morphine analgesia (10') stood at 18.9%; with morphine analgesia (20'), 37.0 ± 12.0%; in the assay with morphine analgesia (30'), 45.8 ± 18.0%; in the assay with morphine analgesia (45') it was 41.0 ± 17.0%; in the assay with morphine analgesia (60'), 39.3 ± 20.0%; with morphine analgesia (90'), 31.2 ± 18.0%. Besides, the “M (10-90) ± SE, mean percentage variation of latency” value in the assay on morphine analgesia turned out to be 35.5 ± 9.5%. Moreover, the “Power ratio” value in the assay with morphine analgesia came to 1.19. Besides, in assay [1], the “ED50 (concentration antagonising 50% of contracting effect of CCK-8)” value was over 200 µg/mL.

Consider `CCCN(CCC)C(=O)C(CCC(=O)O)NC(=O)c1ccc(I)cc1` (stereo not drawn) [Compound C-18], for which the “percentage variation of latency of pain sensation” value in the assay on morphine analgesia (10') turned out to be 48.9 ± 31.0%; with morphine analgesia (20'), 65.9 ± 24.0%; in the assay with morphine analgesia (30'), 80.1 ± 9.0%; with morphine analgesia (45') it was 59.1 ± 20.0%; in the assay with morphine analgesia (60'), 33.5 ± 20.0%; in the assay on morphine analgesia (90'), 81.4 ± 12.0%. Besides, the “M (10-90) ± SE, mean percentage variation of latency” value in the assay with morphine analgesia came out at 58.1%. The “Power ratio” value in the assay with morphine analgesia is given as 1.95. Further, the “ED50 (concentration antagonising 50% of contracting effect of CCK-8)” value in assay [1] was determined as 60.3 µg/mL.
